From ChEMBL document CHEMBL1201862, “PubChem BioAssay data set” (2004)
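Grown in 96-well plates, cells were treated for 48 hours with each compound at five concentrations. Insufficient inhibition: endpoint recorded as highest concentration tested. GI50: concentration for 50% inhibition of growth.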 The source made the active and inactive calls. Rule as the data show it: active = GI50 up to about 1.1 µM and inactive = higher.

Tests used:
Experiment in all cases: growth of human tumour cells (NCI), 48 h
[1] = test system: OVCAR-8
[2] = test system: T47D
[3] = test system: HOP-62
[4] = test system: SW-620
[5] = test system: MDA-MB-435
[6] = test system: SK-MEL-5
[7] = test system: UACC-257
[8] = test system: NCI/ADR-RES
[9] = test system: NCI-H226
[10] = test system: SK-MEL-2
[11] = test system: BT-549
[12] = test system: PC-3
[13] = test system: HOP-92
[14] = test system: IGROV-1
[15] = test system: SNB-19
[16] = test system: HCT-116
[17] = test system: ACHN
[18] = test system: EKVX
[19] = test system: MDA-MB-231

| SMILES | GI50 [1] | GI50 [2] | GI50 [3] | GI50 [4] | GI50 [5] | GI50 [6] | GI50 [7] | GI50 [8] | GI50 [9] | GI50 [10] | GI50 [11] | GI50 [12] | GI50 [13] | GI50 [14] | GI50 [15] | GI50 [16] | GI50 [17] | GI50 [18] | GI50 [19] |
| --- | --- | --- | --- | --- | --- | --- | --- | --- | --- | --- | --- | --- | --- | --- | --- | --- | --- | --- | --- |
| COc1ccc(C2=NN(C(=N)S)C(c3ccccc3)C2)cc1 (stereo not drawn) | 39.7 µM (inactive) | 29.9 µM (inactive) | 38.2 µM (inactive) | 52.2 µM (inactive) | 31 µM (inactive) | 16.7 µM (inactive) | 29.2 µM (inactive) | 34.5 µM (inactive) | 34.6 µM (inactive) | 29.4 µM (inactive) | 38.2 µM (inactive) | 34 µM (inactive) | 30.5 µM (inactive) | 48.4 µM (inactive) | 51.8 µM (inactive) | 31.5 µM (inactive) | 36.9 µM (inactive) | 35.9 µM (inactive) | – |
| CSc1scc2c1/C(=N/NC(N)=O)CCC2 | > 100 µM (inactive) | > 100 µM (inactive) | > 100 µM (inactive) | > 100 µM (inactive) | 52.8 µM (inactive) | 41.1 µM (inactive) | > 100 µM (inactive) | 20.1 µM (inactive) | 22.4 µM (inactive) | > 100 µM (inactive) | 80 µM (inactive) | 93.5 µM (inactive) | 2.34 µM (inactive) | – | > 100 µM (inactive) | 70 µM (inactive) | > 100 µM (inactive) | – | > 100 µM (inactive) |
| COC(=O)C1C=CN(N(C)C)C2=C1C(=O)c1c(O)cccc1C2=O (stereo not drawn) | 2.67 µM (inactive) | 2.32 µM (inactive) | 2.68 µM (inactive) | 2.28 µM (inactive) | 0.429 µM (active) | 0.54 µM (active) | 1.41 µM (inactive) | 2.22 µM (inactive) | 1.87 µM (inactive) | 2.31 µM (inactive) | 1.99 µM (inactive) | 2.96 µM (inactive) | – | 2.1 µM (inactive) | 2.34 µM (inactive) | 1.92 µM (inactive) | 3.37 µM (inactive) | 2.79 µM (inactive) | 1.89 µM (inactive) |
| Fc1ccc(C(OCCN2CCC3CCC(C2)N3C/C=C/c2ccco2)c2ccc(F)cc2)cc1 (stereo not drawn) | 5.83 µM (inactive) | 5.14 µM (inactive) | 16.2 µM (inactive) | 7.96 µM (inactive) | 10.7 µM (inactive) | 4.22 µM (inactive) | 4.44 µM (inactive) | 7.4 µM (inactive) | 13.2 µM (inactive) | 12.3 µM (inactive) | 12.8 µM (inactive) | 8.2 µM (inactive) | 4.62 µM (inactive) | 6.5 µM (inactive) | 15.7 µM (inactive) | 4.91 µM (inactive) | 12.7 µM (inactive) | – | 11.1 µM (inactive) |
| C[C@@H]1C[C@@]2(O[C@@H]2C)C(=O)O[C@@H]2CCN3CC=C(COC(=O)[C@]1(C)O)[C@H]23 | > 100 µM (inactive) | > 100 µM (inactive) | – | > 100 µM (inactive) | > 100 µM (inactive) | > 100 µM (inactive) | > 100 µM (inactive) | > 100 µM (inactive) | > 100 µM (inactive) | > 100 µM (inactive) | > 100 µM (inactive) | > 100 µM (inactive) | 10.7 µM (inactive) | > 100 µM (inactive) | > 100 µM (inactive) | > 100 µM (inactive) | > 100 µM (inactive) | > 100 µM (inactive) | > 100 µM (inactive) |
| O=C1Nc2cccc(Cl)c2/C1=C\c1c(-c2ccccc2)nc2n1CCS2 | 24.7 µM (inactive) | 17.5 µM (inactive) | 25.9 µM (inactive) | 14.9 µM (inactive) | 18.2 µM (inactive) | 19.5 µM (inactive) | 21.4 µM (inactive) | 16.3 µM (inactive) | – | 20.3 µM (inactive) | 22.1 µM (inactive) | 18.6 µM (inactive) | 20 µM (inactive) | 12.8 µM (inactive) | 26.6 µM (inactive) | 20.2 µM (inactive) | 16.4 µM (inactive) | 26.1 µM (inactive) | 20.7 µM (inactive) |
| COc1cc(COC(=O)N2CSCC2C(=O)O)c([N+](=O)[O-])cc1OC (stereo not drawn) | > 100 µM (inactive) | > 100 µM (inactive) | > 100 µM (inactive) | > 100 µM (inactive) | > 100 µM (inactive) | > 100 µM (inactive) | > 100 µM (inactive) | > 100 µM (inactive) | > 100 µM (inactive) | – | > 100 µM (inactive) | > 100 µM (inactive) | > 100 µM (inactive) | > 100 µM (inactive) | > 100 µM (inactive) | > 100 µM (inactive) | > 100 µM (inactive) | > 100 µM (inactive) | – |
| CCc1c(Cc2cccc3ccccc23)n2c(nc1=O)SCC2OCCO (stereo not drawn) | 33.1 µM (inactive) | 31 µM (inactive) | – | 70.5 µM (inactive) | 18.2 µM (inactive) | 95.5 µM (inactive) | > 100 µM (inactive) | 81.5 µM (inactive) | > 100 µM (inactive) | > 100 µM (inactive) | 41.7 µM (inactive) | 52.6 µM (inactive) | 0.328 µM (active) | 24.7 µM (inactive) | > 100 µM (inactive) | > 100 µM (inactive) | > 100 µM (inactive) | 33.7 µM (inactive) | > 100 µM (inactive) |
| O=C(O)C1C2CCC(O2)C1C(=O)NCc1cccnc1 (stereo not drawn) | – | > 100 µM (inactive) | > 100 µM (inactive) | > 100 µM (inactive) | > 100 µM (inactive) | > 100 µM (inactive) | > 100 µM (inactive) | > 100 µM (inactive) | – | > 100 µM (inactive) | > 100 µM (inactive) | > 100 µM (inactive) | – | – | > 100 µM (inactive) | > 100 µM (inactive) | > 100 µM (inactive) | > 100 µM (inactive) | > 100 µM (inactive) |
| C=C(c1ccccc1)C1ON(C)CCc2cc(OC)c(OC)cc21 (stereo not drawn) | > 100 µM (inactive) | 37 µM (inactive) | > 100 µM (inactive) | > 100 µM (inactive) | 84.9 µM (inactive) | 23.3 µM (inactive) | 42.3 µM (inactive) | 48.4 µM (inactive) | > 100 µM (inactive) | – | > 100 µM (inactive) | > 100 µM (inactive) | 34.4 µM (inactive) | > 100 µM (inactive) | > 100 µM (inactive) | 43.4 µM (inactive) | 84.7 µM (inactive) | > 100 µM (inactive) | 53.6 µM (inactive) |
| COC(=O)c1ccc(Oc2nc3ccc(C(F)(F)F)cc3nc2-c2ccccc2)cc1 | > 100 µM (inactive) | 56.2 µM (inactive) | > 100 µM (inactive) | > 100 µM (inactive) | > 100 µM (inactive) | > 100 µM (inactive) | > 100 µM (inactive) | > 100 µM (inactive) | > 100 µM (inactive) | – | > 100 µM (inactive) | > 100 µM (inactive) | > 100 µM (inactive) | > 100 µM (inactive) | – | > 100 µM (inactive) | 56.9 µM (inactive) | 55.5 µM (inactive) | > 100 µM (inactive) |
| CNC(=O)c1nn[nH]c1Sc1c([N+](=O)[O-])ncn1C | > 100 µM (inactive) | > 100 µM (inactive) | > 100 µM (inactive) | > 100 µM (inactive) | > 100 µM (inactive) | > 100 µM (inactive) | > 100 µM (inactive) | > 100 µM (inactive) | – | > 100 µM (inactive) | > 100 µM (inactive) | > 100 µM (inactive) | > 100 µM (inactive) | > 100 µM (inactive) | > 100 µM (inactive) | > 100 µM (inactive) | > 100 µM (inactive) | > 100 µM (inactive) | > 100 µM (inactive) |
| CCOC(=O)c1nc2cc(C(F)(F)F)ccc2nc1Nc1cc(OC)c(OC)c(OC)c1 | > 100 µM (inactive) | > 100 µM (inactive) | > 100 µM (inactive) | > 100 µM (inactive) | > 100 µM (inactive) | > 100 µM (inactive) | > 100 µM (inactive) | > 100 µM (inactive) | > 100 µM (inactive) | – | > 100 µM (inactive) | > 100 µM (inactive) | > 100 µM (inactive) | > 100 µM (inactive) | > 100 µM (inactive) | > 100 µM (inactive) | > 100 µM (inactive) | > 100 µM (inactive) | > 100 µM (inactive) |
| CCCCCCCCCCCC1=C(O)C(=O)C(CC2=C(O)C(=O)C(CCCCCCCCCCC)=C(O)C2=O)=C(O)C1=O | 29.8 µM (inactive) | > 100 µM (inactive) | – | > 100 µM (inactive) | > 100 µM (inactive) | > 100 µM (inactive) | > 100 µM (inactive) | > 100 µM (inactive) | > 100 µM (inactive) | > 100 µM (inactive) | > 100 µM (inactive) | > 100 µM (inactive) | 16.3 µM (inactive) | > 100 µM (inactive) | 21.1 µM (inactive) | > 100 µM (inactive) | 76 µM (inactive) | > 100 µM (inactive) | 28.6 µM (inactive) |
| CCOC(=O)C1(C)CCc2sc(N)c(C#N)c21 (stereo not drawn) | > 100 µM (inactive) | > 100 µM (inactive) | > 100 µM (inactive) | > 100 µM (inactive) | – | > 100 µM (inactive) | > 100 µM (inactive) | – | > 100 µM (inactive) | > 100 µM (inactive) | > 100 µM (inactive) | > 100 µM (inactive) | > 100 µM (inactive) | > 100 µM (inactive) | > 100 µM (inactive) | > 100 µM (inactive) | > 100 µM (inactive) | > 100 µM (inactive) | > 100 µM (inactive) |
